Experiments:
Assay in all cases: cell viability (% survival relative to DMSO control); higher = less cytotoxic
Settings in all cases: 72 h
[1] = test system: myeloid leukemia patient primary cells Pat.11
Method in brief: (§1)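 Mononuclear cells from patients with AML or CML were thawed, purified on Ficoll and placed in RPMI 1640 with 10% FBS at 10,000 cells/well on 384-well plates. The plates came pre-printed with 70 compounds at five tenfold concentrations spanning 1–10,000 nM, in duplicate, and cells were exposed for 72 h. CellTiter-Glo gave viability, scaled between DMSO wells and wells with 10 μM proteasome inhibitor. Where reported, area under the curve was obtained from log-logistic fits with four parameters using the drc and PharmacoGx R packages.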

[2] = test system: myeloid leukemia patient primary cells Pat.15
Method in brief: as §1

[3] = test system: myeloid leukemia patient primary cells Pat.3
Method in brief: as §1

[4] = test system: myeloid leukemia patient primary cells Pat.8
Method in brief: as §1

Sc1ncnc2nc[nH]c12 [6-mercaptopurine]
cell viability ([1]; 1 nM): > 100% | cell viability ([1]; 10 nM): 98.2% | cell viability ([1]; 100 nM): 97.6% | cell viability ([1]; 1000 nM): 97.9% | cell viability ([1]; 10000 nM): 98.1% | cell viability ([2]; 1 nM): 99.2% | cell viability ([2]; 10 nM): > 100% | cell viability ([2]; 100 nM): 98.5% | cell viability ([2]; 1000 nM): 94.3% | cell viability ([2]; 10000 nM): 98.3% | cell viability ([3]; 1 nM): 94.8% | cell viability ([3]; 10 nM): 97.6% | cell viability ([3]; 100 nM): 44.2% | cell viability ([3]; 1000 nM): 35.1% | cell viability ([3]; 10000 nM): 16.3% | cell viability ([4]; 1 nM): 80.3% | cell viability ([4]; 10 nM): > 100% | cell viability ([4]; 100 nM): 86.2% | cell viability ([4]; 1000 nM): 75.1% | cell viability ([4]; 10000 nM): 73%

Cc1noc2c1-c1ccccc1C(c1ccc(Cl)cc1)=N[C@H]2CC(N)=O [CPI-0610]
cell viability ([1]; 1 nM): > 100% | cell viability ([1]; 10 nM): 93% | cell viability ([1]; 100 nM): 93.6% | cell viability ([1]; 1000 nM): 54.3% | cell viability ([1]; 10000 nM): 51.8% | cell viability ([2]; 1 nM): 95.1% | cell viability ([2]; 10 nM): 94.6% | cell viability ([2]; 100 nM): 76.1% | cell viability ([2]; 1000 nM): 3.36% | cell viability ([2]; 10000 nM): 1.08% | cell viability ([3]; 1 nM): > 100% | cell viability ([3]; 10 nM): 79.3% | cell viability ([3]; 100 nM): 68.4% | cell viability ([3]; 1000 nM): 22.7% | cell viability ([3]; 10000 nM): 15.6% | cell viability ([4]; 1 nM): 93.5% | cell viability ([4]; 10 nM): 78.8% | cell viability ([4]; 100 nM): 96.1% | cell viability ([4]; 1000 nM): 70% | cell viability ([4]; 10000 nM): 82.7%

Nc1ccn([C@@H]2O[C@H](CO)[C@@H](O)[C@@H]2O)c(=O)n1 [Cytarabine]
cell viability ([1]; 1 nM): 95.7% | cell viability ([1]; 10 nM): 93.6% | cell viability ([1]; 100 nM): > 100% | cell viability ([1]; 1000 nM): 89.3% | cell viability ([1]; 10000 nM): 41.1% | cell viability ([2]; 1 nM): 94.5% | cell viability ([2]; 10 nM): 86.4% | cell viability ([2]; 100 nM): 99.6% | cell viability ([2]; 1000 nM): 81% | cell viability ([2]; 10000 nM): 32.8% | cell viability ([3]; 1 nM): > 100% | cell viability ([3]; 10 nM): 39.5% | cell viability ([3]; 100 nM): 46.5% | cell viability ([3]; 1000 nM): 11.6% | cell viability ([3]; 10000 nM): 5% | cell viability ([4]; 1 nM): 90.3% | cell viability ([4]; 10 nM): 91.5% | cell viability ([4]; 100 nM): 96.1% | cell viability ([4]; 1000 nM): 89.1% | cell viability ([4]; 10000 nM): 22.4%

CCN(CC)CCN(Cc1ccc(-c2ccc(C(F)(F)F)cc2)cc1)C(=O)Cn1c(SCc2ccc(F)cc2)nc(=O)c2c1CCC2 [Darapladib]
cell viability ([1]; 1 nM): 87.2% | cell viability ([1]; 10 nM): 98.3% | cell viability ([1]; 100 nM): 85.3% | cell viability ([1]; 1000 nM): 88.2% | cell viability ([1]; 10000 nM): 0.357% | cell viability ([2]; 1 nM): 82.5% | cell viability ([2]; 10 nM): > 100% | cell viability ([2]; 100 nM): 85.8% | cell viability ([2]; 1000 nM): 96% | cell viability ([2]; 10000 nM): 0.433% | cell viability ([3]; 1 nM): 81.4% | cell viability ([3]; 10 nM): 90.8% | cell viability ([3]; 100 nM): 70.5% | cell viability ([3]; 1000 nM): 54.4% | cell viability ([3]; 10000 nM): < 0% | cell viability ([4]; 1 nM): 62.6% | cell viability ([4]; 10 nM): 85.8% | cell viability ([4]; 100 nM): 77.8% | cell viability ([4]; 1000 nM): 86.2% | cell viability ([4]; 10000 nM): 1.84%

CC12CCC(O)CC1CCC1C2CCC2(C)C(C3=CC(=O)OC3)CCC12O (stereo not given) [Digitoxigenin]
cell viability ([1]; 1 nM): 99.8% | cell viability ([1]; 10 nM): 94.1% | cell viability ([1]; 100 nM): 94.8% | cell viability ([1]; 1000 nM): 31.9% | cell viability ([1]; 10000 nM): 9.33% | cell viability ([2]; 1 nM): > 100% | cell viability ([2]; 10 nM): 92.9% | cell viability ([2]; 100 nM): 97.5% | cell viability ([2]; 1000 nM): 8.87% | cell viability ([2]; 10000 nM): 2.72% | cell viability ([3]; 1 nM): > 100% | cell viability ([3]; 10 nM): 90% | cell viability ([3]; 100 nM): 16.6% | cell viability ([3]; 1000 nM): 0.964% | cell viability ([3]; 10000 nM): 1.87% | cell viability ([4]; 1 nM): 91.6% | cell viability ([4]; 10 nM): 89% | cell viability ([4]; 100 nM): 78.4% | cell viability ([4]; 1000 nM): 7.34% | cell viability ([4]; 10000 nM): 2.31%

C[C@H]1O[C@@H](O[C@H]2[C@@H](O)C[C@H](O[C@H]3[C@@H](O)C[C@H](O[C@H]4CC[C@@]5(C)[C@H](CC[C@@H]6[C@@H]5C[C@@H](O)[C@]5(C)[C@@H](C7=CC(=O)OC7)CC[C@]65O)C4)O[C@@H]3C)O[C@@H]2C)C[C@H](O)[C@@H]1O [Digoxin]
cell viability ([1]; 1 nM): > 100% | cell viability ([1]; 10 nM): 97.6% | cell viability ([1]; 100 nM): 48.8% | cell viability ([1]; 1000 nM): 12.4% | cell viability ([1]; 10000 nM): 7.54% | cell viability ([2]; 1 nM): 98.4% | cell viability ([2]; 10 nM): 98.4% | cell viability ([2]; 100 nM): 50.6% | cell viability ([2]; 1000 nM): 1.74% | cell viability ([2]; 10000 nM): 1.52% | cell viability ([3]; 1 nM): 94.1% | cell viability ([3]; 10 nM): 81.3% | cell viability ([3]; 100 nM): 11.5% | cell viability ([3]; 1000 nM): 2.91% | cell viability ([3]; 10000 nM): 1.13% | cell viability ([4]; 1 nM): 84.6% | cell viability ([4]; 10 nM): 96.1% | cell viability ([4]; 100 nM): 67.2% | cell viability ([4]; 1000 nM): 6.59% | cell viability ([4]; 10000 nM): 5.15%

Clc1ccc(COC(Cn2ccnc2)c2ccc(Cl)cc2Cl)cc1 (stereo not given) [Econazole]
cell viability ([1]; 1 nM): 89.9% | cell viability ([1]; 10 nM): 92.9% | cell viability ([1]; 100 nM): 99.9% | cell viability ([1]; 1000 nM): 88.6% | cell viability ([1]; 10000 nM): 73.3% | cell viability ([2]; 1 nM): 84.3% | cell viability ([2]; 10 nM): 92.6% | cell viability ([2]; 100 nM): 98.3% | cell viability ([2]; 1000 nM): 89.4% | cell viability ([2]; 10000 nM): 68.7% | cell viability ([3]; 1 nM): 74.2% | cell viability ([3]; 10 nM): 89.5% | cell viability ([3]; 100 nM): 93% | cell viability ([3]; 1000 nM): 70.1% | cell viability ([3]; 10000 nM): 1.03% | cell viability ([4]; 1 nM): 93.3% | cell viability ([4]; 10 nM): 86.9% | cell viability ([4]; 100 nM): 81% | cell viability ([4]; 1000 nM): > 100% | cell viability ([4]; 10000 nM): 85.3%

C[C@]12O[C@H](C[C@]1(O)CO)n1c3ccccc3c3c4c(c5c6ccccc6n2c5c31)CNC4=O [Lestaurtinib]
cell viability ([1]; 1 nM): 96.4% | cell viability ([1]; 10 nM): 74.7% | cell viability ([1]; 100 nM): 41.8% | cell viability ([1]; 1000 nM): 56.9% | cell viability ([1]; 10000 nM): 1.92% | cell viability ([2]; 1 nM): 97.1% | cell viability ([2]; 10 nM): 61.3% | cell viability ([2]; 100 nM): 43.7% | cell viability ([2]; 1000 nM): 2.83% | cell viability ([2]; 10000 nM): 0.259% | cell viability ([3]; 1 nM): 90.1% | cell viability ([3]; 10 nM): 53% | cell viability ([3]; 100 nM): 69% | cell viability ([3]; 1000 nM): 16% | cell viability ([3]; 10000 nM): 8.21% | cell viability ([4]; 1 nM): 87.6% | cell viability ([4]; 10 nM): 75.8% | cell viability ([4]; 100 nM): 61.9% | cell viability ([4]; 1000 nM): 54.6% | cell viability ([4]; 10000 nM): 0.632%

CC(Cc1ccc(O)c(O)c1)C(C)Cc1ccc(O)c(O)c1 (stereo not given) [Masoprocol]
cell viability ([1]; 1 nM): 94.1% | cell viability ([1]; 10 nM): > 100% | cell viability ([1]; 100 nM): 98.8% | cell viability ([1]; 1000 nM): 89.9% | cell viability ([1]; 10000 nM): 80% | cell viability ([2]; 1 nM): 89% | cell viability ([2]; 10 nM): 93.8% | cell viability ([2]; 100 nM): 94.4% | cell viability ([2]; 1000 nM): 80.9% | cell viability ([2]; 10000 nM): 31.1% | cell viability ([3]; 1 nM): 90.1% | cell viability ([3]; 10 nM): 91.5% | cell viability ([3]; 100 nM): 80.4% | cell viability ([3]; 1000 nM): 35.8% | cell viability ([3]; 10000 nM): 5.51% | cell viability ([4]; 1 nM): 97.6% | cell viability ([4]; 10 nM): 84.9% | cell viability ([4]; 100 nM): 95.6% | cell viability ([4]; 1000 nM): 69.7% | cell viability ([4]; 10000 nM): 6.74%

COc1c(C)c2c(c(O)c1C/C=C(\C)CCC(=O)O)C(=O)OC2 [Mycophenolic acid]
cell viability ([1]; 1 nM): 88.3% | cell viability ([1]; 10 nM): > 100% | cell viability ([1]; 100 nM): 91% | cell viability ([1]; 1000 nM): > 100% | cell viability ([1]; 10000 nM): 78.1% | cell viability ([2]; 1 nM): 91.6% | cell viability ([2]; 10 nM): 94.3% | cell viability ([2]; 100 nM): 86.7% | cell viability ([2]; 1000 nM): > 100% | cell viability ([2]; 10000 nM): 84.3% | cell viability ([3]; 1 nM): 65.5% | cell viability ([3]; 10 nM): 81.3% | cell viability ([3]; 100 nM): 99.4% | cell viability ([3]; 1000 nM): 56.5% | cell viability ([3]; 10000 nM): 47.4% | cell viability ([4]; 1 nM): 69.4% | cell viability ([4]; 10 nM): 92.3% | cell viability ([4]; 100 nM): 75.5% | cell viability ([4]; 1000 nM): 91.8% | cell viability ([4]; 10000 nM): 43.8%

CCOC(=O)N1c2ccc(C(F)(F)F)cc2[C@@H](N(Cc2cc(C(F)(F)F)cc(C(F)(F)F)c2)C(=O)OC)C[C@H]1CC [Torcetrapib]
cell viability ([1]; 1 nM): 96.7% | cell viability ([1]; 10 nM): 85.1% | cell viability ([1]; 100 nM): 99.1% | cell viability ([1]; 1000 nM): > 100% | cell viability ([1]; 10000 nM): 97.5% | cell viability ([2]; 1 nM): 98.5% | cell viability ([2]; 10 nM): 86% | cell viability ([2]; 100 nM): 97.7% | cell viability ([2]; 1000 nM): 87.1% | cell viability ([2]; 10000 nM): 75.8% | cell viability ([3]; 1 nM): 97% | cell viability ([3]; 10 nM): 62.9% | cell viability ([3]; 100 nM): 95.2% | cell viability ([3]; 1000 nM): 88.7% | cell viability ([3]; 10000 nM): 22.4% | cell viability ([4]; 1 nM): 92.3% | cell viability ([4]; 10 nM): 84.8% | cell viability ([4]; 100 nM): 96.1% | cell viability ([4]; 1000 nM): 93.3% | cell viability ([4]; 10000 nM): 65.7%

— the supplement of paper PMC8671470
